Test results: US11840686B2, “Modulation of prekallikrein (PKK) expression” (Ionis Pharmaceuticals, Inc., priority 2013, dated 2023)
Strand notation (5' to 3'): a small letter for the sugar, then the base; units joined by * are phosphorothioate-linked, units joined directly phosphodiester-linked; [ ] holds rarer units or linkages, { } end groups; capitals alone tell only the bases. e = 2'-O-(2-methoxyethyl) (MOE); [5mC] = 5-methylcytosine; d = 2'-deoxy (DNA)

System: human PKK mRNA
Assay: Antisense inhibition of human PKK mRNA in HepaRG cells, 5,000 nM (Example 2)
Assay type: cell-based
Summary of the method: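 Chimeric MOE gapmers with full phosphorothioate backbones were tested once at 5,000 nM in electroporated HepaRG cells. After about 24 hours, quantitative PCR measured PKK mRNA relative to untreated control cells.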

[1] = HepaRG cells, electroporation with 5,000 nM antisense oligonucleotide, approximately 24 hours, PKK mRNA by RT-PCR (RTS3454), relative to untreated control cells, Table 5 experiment
[2] = human PKK mRNA in HepaRG cells, 5-10-5 gapmers, Table 14
[3] = HepaRG cells, 5,000 nM antisense oligonucleotide, 5-10-5 gapmers, Table 16
[4] = Table 8, HepaRG cells, electroporation with 5,000 nM antisense oligonucleotide, approx. 24 hours, PKK mRNA by RT-PCR (RTS3454), relative to untreated control cells
[5] = Table 7, HepaRG cells, electroporation with 5,000 nM antisense oligonucleotide, approx. 24 hours, PKK mRNA by RT-PCR (RTS3454), relative to untreated control cells

Question: For “548746 (antisense eT*eA*eT*e[5mC]*dA*d[5mC]*dT*dG*dT*dA*d[5mC]*dT*dA*eG*eT*eT*eT) [compound 548746]”, which “% inhibition” value (human PKK mRNA, HepaRG cells, 5,000 nM antisense oligonucleotide, Table 18) is on record?
Answer: 40%

Question: Which “% inhibition” value (human PKK mRNA, HepaRG cells, 5-10-5 motif oligonucleotides targeting SEQ ID NO: 1 and 10) does the source give for “547662 (eA*e[5mC]*e[5mC]*eT*eA*dT*dA*dA*d[5mC]*dT*dA*dT*dA*dA*d[5mC]*eA*eG*eT*eA*eT; antisense) [compound 547662]” here?
Answer: 0%

Question: How did the “% inhibition” value [1] turn out when “547304 (antisense e[5mC]*eT*eT*eT*eT*d[5mC]*dT*d[5mC]*d[5mC]*dA*dT*dG*dT*d[5mC]*dA*eT*eT*eG*eA*eT) [compound 547304]” was run?
Answer: 71%

Question: With “547605 (antisense eA*e[5mC]*eA*eA*eT*dA*dT*d[5mC]*dA*d[5mC]*dT*dG*dT*dA*d[5mC]*e[5mC]*eT*eA*eT*eA) [compound 547605]” as the substance, how does the “% inhibition” value [2] read?
Answer: 43%

Question: What does the source list for “546316 (antisense eG*e[5mC]*e[5mC]*eT*eG*dG*dA*dG*dT*dT*dT*dT*dA*dT*d[5mC]*eA*eA*eG*eG*e[5mC]) [compound 546316]”?
Answer: % inhibition (Table 9 experiment, HepaRG cells, 20,000 cells per well, electroporation with 5,000 nM antisense oligonucleotide, approx. 24 hours, PKK mRNA by RT-PCR (RTS3454), relative to untreated control cells): 51%; % inhibition (Table 10 experiment, HepaRG cells, 20,000 cells per well, electroporation with 5,000 nM antisense oligonucleotide, approx. 24 hours, PKK mRNA by RT-PCR (RTS3454), relative to untreated control cells): 60%

Question: With “546970 (eG*e[5mC]*e[5mC]*e[5mC]*eA*dA*dG*d[5mC]*d[5mC]*dT*dA*d[5mC]*dA*dT*dG*e[5mC]*eA*eT*eA*e[5mC]; antisense) [compound 546970]” as the substance, how does the “% inhibition” value [3] read?
Answer: 61%

Question: Which “% inhibition” value [4] does the source give for “546263 (eG*eG*eA*eG*eT*dA*dA*dA*dG*dA*dA*dT*dA*dA*dG*eT*eG*eA*eA*eA; antisense) [compound 546263]” here?
Answer: 0%

Question: Which “% inhibition” value [3] does the source give for “546944 (eG*e[5mC]*e[5mC]*eA*e[5mC]*dT*dA*dA*d[5mC]*d[5mC]*d[5mC]*dA*d[5mC]*d[5mC]*dT*e[5mC]*eT*eT*eA*eA; antisense) [compound 546944]” here?
Answer: 42%

Question: For “547733 (eT*eA*eG*eG*eA*dT*dT*dG*dG*dT*dG*dG*dT*dG*dG*eG*eA*eT*eT*eG; antisense) [compound 547733]”, which “% inhibition” value (HepaRG cells, 5,000 nM antisense oligonucleotide, 5-10-5 gapmers, Table 17) is on record?
Answer: 0%

Question: With “546850 (eT*eA*eT*e[5mC]*eA*d[5mC]*dT*dG*dT*d[5mC]*d[5mC]*dT*dA*dT*dA*eT*e[5mC]*eA*e[5mC]*eT; antisense) [compound 546850]” as the substance, how does the “% inhibition” value [2] read?
Answer: 80%

Question: “547415 (eT*e[5mC]*eT*eG*eG*dG*dA*dG*dT*dA*dA*dA*dG*dA*dA*eT*eA*eA*eG*eT; antisense) [compound 547415]” was tested. Which “% inhibition” value [4] did it give?
Answer: 71%

Question: With “546360 (antisense eA*e[5mC]*eT*eG*e[5mC]*dA*dT*d[5mC]*dT*dG*dA*dG*d[5mC]*dT*dT*eT*eT*e[5mC]*e[5mC]*eA) [compound 546360]” as the substance, how does the “% inhibition” value (HepaRG cells, electroporation, 5,000 nM antisense oligonucleotide, approx. 24 hours, primer probe set RTS3454, relative to untreated control cells, Table 11) read?
Answer: 13%

Question: How did the “% inhibition” value [1] turn out when “547297 (antisense eT*eG*eG*eA*eA*dT*dG*dT*dG*d[5mC]*dA*d[5mC]*d[5mC]*dT*d[5mC]*eA*eT*e[5mC]*eT*eG) [compound 547297]” was run?
Answer: 84%

Question: For “547397 (eG*eT*eT*e[5mC]*eA*dG*dG*dT*dA*dA*dA*dG*dT*dT*d[5mC]*eT*eT*eT*eT*eG; antisense) [compound 547397]”, which “% inhibition” value [5] is on record?
Answer: 27%

Question: For “546502 (eG*eA*eT*eT*eT*dT*d[5mC]*d[5mC]*dA*dT*dG*d[5mC]*dA*dT*dA*e[5mC]*eT*e[5mC]*eG*e[5mC]; antisense) [compound 546502]”, which “% inhibition” value (HepaRG cells, electroporation, 5,000 nM antisense oligonucleotide, approx. 24 hours, primer probe set RTS3454, relative to untreated control cells, Table 12) is on record?
Answer: 37%

Question: Which “% inhibition” value [5] does the source give for “546217 (antisense e[5mC]*eA*e[5mC]*eA*eA*dA*dA*dG*d[5mC]*dA*dT*d[5mC]*dT*dG*dG*eA*eG*eT*eG*eA) [compound 546217]” here?
Answer: 83%

Question: With “547716 (e[5mC]*e[5mC]*eA*eT*e[5mC]*dT*dG*dT*d[5mC]*d[5mC]*d[5mC]*d[5mC]*dT*d[5mC]*dA*eA*eT*e[5mC]*e[5mC]*e[5mC]; antisense) [compound 547716]” as the substance, how does the “% inhibition” value [3] read?
Answer: 9%

Question: With “546244 (eT*eA*eA*eA*eT*dT*dT*dT*dA*dG*dA*dA*dT*dG*dG*e[5mC]*eA*eG*eG*eG; antisense) [compound 546244]” as the substance, how does the “% inhibition” value [5] read?
Answer: 27%

Question: For “546258 (eA*e[5mC]*eA*eG*e[5mC]*dG*dA*dA*dT*d[5mC]*dA*dT*d[5mC]*dT*dT*eT*eG*eT*eG*e[5mC]; antisense) [compound 546258]”, which “% inhibition” value [4] is on record?
Answer: 74%

Question: For “546288 (antisense eG*eT*eT*eT*eG*dT*dT*d[5mC]*d[5mC]*dT*d[5mC]*d[5mC]*dA*dA*d[5mC]*eA*eA*eT*eG*e[5mC]) [compound 546288]”, which “% inhibition” value [4] is on record?
Answer: 78%
